According to US20060040997A1, “Benzthiazole-3 oxides useful for the treatment of proliferative disorders” (priority 2003, published 2006):
Read-outs that look alike come from different tables or passages of the source.

How the values were obtained:
A549 = experiment: 72-h MTT cellular proliferation assay, A549; assay type: cell-based; conditions: Homo sapiens, A549, 72 h; read-out: Anti-proliferative activity on tumour cell lines (MTT assay) A549 IC50
Experimental: (§1) Cellular proliferation assays using human tumour cell lines (obtained from the American Type Culture Collection, 10801 University Boulevard, Manessas, Va. 20110-2209, USA) were carried out. Standard 72-h MTT (thiazolyl blue; 3-[4,5-dimethylthiazol-2-yl]-2,5-diphenyltetrazolium bromide) assays were performed (Loveland et al, Biochem. Int., 1992, 27, 501; Haselsberger et al, Anti Cancer Drugs, 1996, 7, 331). In short: cells were seeded into 96-well plates according to doubling time and incubated overnight at 37° C. Test compounds were made up in DMSO and a ⅓ dilution series prepared in 100 μL cell media, added to cells (in triplicates) and incubated for 72 h at 37° C. MTT was made up as a stock of 5 mg/mL in cell media and filter-sterilised. Media was removed from cells followed by a wash with 200 μL PBS. MTT solution was then added at 20 μL per well and incubated in the dark at 37° C. for 4 h. MTT solution was removed and cells again washed with 200 μL PBS. MTT dye was solubilised with 200 μL per well of DMSO with agitation.

HELA = experiment: 72-h MTT cellular proliferation assay, HELA; assay type: cell-based; conditions: Homo sapiens, read-out: Anti-proliferative activity on tumour cell lines (MTT assay) HELA IC50
Experimental: as §1

MCF-7 = experiment: 72-h MTT cellular proliferation assay, MCF-7; assay type: cell-based; conditions: Homo sapiens, MCF7; MCF-7, 72 h; read-out: Anti-proliferative activity on tumour cell lines (MTT assay) MCF-7 IC50
Experimental: as §1

U2OS = experiment: 72-h MTT cellular proliferation assay, U2OS; assay type: cell-based; conditions: Homo sapiens, read-out: Anti-proliferative activity on tumour cell lines (MTT assay) U2OS IC50
Experimental: as §1

human PLK1 = molecular target: T1, human PLK1 (Homo sapiens, UniProt P53350); experiment: PLK1 protein kinase assay (CDC25C phosphorylation, [γ-32P]-ATP); assay type: biochemical; conditions: read-out: PLK1 kinase inhibition IC50
T1 construct: A full-length human PLK1 (XM—047240) (amino acids 1-603) clone; His6 (N); made in house; host or cells: Sf9 insect cells (baculovirus) for PLK1; E. coli BL21(DE3) RIL for CDC25C
T1 sequence (P53350 whole entry, the tested form may be a part): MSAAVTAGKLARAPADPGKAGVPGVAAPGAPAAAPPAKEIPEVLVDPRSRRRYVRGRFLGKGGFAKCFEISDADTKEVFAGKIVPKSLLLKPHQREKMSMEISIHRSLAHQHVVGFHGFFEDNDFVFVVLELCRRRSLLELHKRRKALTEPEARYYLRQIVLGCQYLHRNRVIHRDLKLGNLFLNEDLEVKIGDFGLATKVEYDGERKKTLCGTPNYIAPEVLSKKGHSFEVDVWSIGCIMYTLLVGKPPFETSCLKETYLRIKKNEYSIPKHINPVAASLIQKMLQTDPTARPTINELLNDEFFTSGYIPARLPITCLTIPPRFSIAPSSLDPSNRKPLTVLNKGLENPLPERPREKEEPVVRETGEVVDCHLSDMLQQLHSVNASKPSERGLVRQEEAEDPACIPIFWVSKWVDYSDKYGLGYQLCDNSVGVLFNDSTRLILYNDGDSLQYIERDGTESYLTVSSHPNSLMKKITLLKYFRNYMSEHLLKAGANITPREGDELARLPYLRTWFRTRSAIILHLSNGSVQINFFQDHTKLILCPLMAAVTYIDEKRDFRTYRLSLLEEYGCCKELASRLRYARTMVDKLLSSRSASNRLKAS
From the text: A full-length human CDC25C clone was isolated by PCR from HeLa mRNA and was inserted on a BamHI-HindIII fragment into pRsetA. The amino terminal fragment of CDC25C (encoding residues 1-300) was excised from this vector and inserted into pET28a (between the NcoI and BamHI sites). Expression was under the control of the T7 promoter, and the encoded protein contained a His6 tag at the carboxyl terminus. The vector was transformed into E. coli strain BRL(DE3) pLysS for expression experiments. CDC25C was expressed in BL21(DE3) RIL bacteria cells, grown in LB media at 37° C. until OD600nm of 0.6 was reached. The expression was induced with 1 mM IPTG and the bacterial culture was grown further for 3 h. The bacteria were harvested by centrifugation and the cell pellet was re-suspended in 50 mM Tris pH 7.5 and 10% sucrose, flash frozen, and stored at −70° C. until used. CDC25C protein was purified from E. coli inclusion bodies. The inclusion bodies were isolated in a buffer (50 mM Tris pH 8.0, 2 mM EDTA, 100 mM NaCl, 0.5% triton X-100). After denaturation in the presence of 6 M urea, the protein was refolded via slow dialysis of the urea. The protein was stored in 25 mM Tris pH 8.0, 100 mM NaCl, 1 mM DTT, 1 mM EDTA and 10% glycerol at −70° C. until used.
A full-length human PLK1 (XM—047240) (amino acids 1-603) clone was amplified from a foetal lung cDNA library using primers incorporating restriction enzyme sites. […] The 3′ primer ([…]) incorporated a stop codon prior to the EcoR1 site. The PCR product was cloned into the Nhe1/EcoR1 sites of a baculovirus expression vector, pSSP 1. […] Cells were only used for expression in logarithmic growth phase. […] The flasks were incubated at 27° C., with shaking at 100 r.p.m. for 48 h. On harvest, cell density and viability was determined, the cultures spun down at 2500 r.p.m. for 5 min and washed with ice-cold phosphate-buffered saline. The wash was re-spun at the same speed and the pellet was snap frozen. PLK1 protein was purified on a metal affinity column.
PLK1 protein kinase assays were carried out using a 96-well plate format by incubating CDC25C (2 μg/well) with PLK1 (1 μg/well) in 20 mM Tris/HCl buffer pH 7.5, supplemented with 25 mM β-glycerophosphate, 5 mM EGTA, 1 mM DTT and 1 mM NaVO3. Serial dilutions of test compound in assay buffer were added. […] The reaction mixture was incubated at 30° C. for 1 h, then stopped with 75 mM aq orthophosphoric acid, transferred onto a 96-well P81 filter plate (Whatman), dried, and the extent of CDC25C phosphorylation was assessed by scintillation counting using a Packard TopCount plate reader. The raw assay data was analysed by non-linear regression analysis parameters and IC50 values were determined using the equation: y=A+((B−A)/(1+((C/x)ˆD))), where y is % inhibition, A is minimum inhibition, B is maximum inhibition, C is EC50, and D is the slope factor.

SMILES | IC50 (A549) | IC50 (HELA) | IC50 (MCF-7) | IC50 (U2OS) | IC50 (human PLK1; 100 μM ATP) | melting point | IC50 (human PLK1; kinase assay at 10 μM ATP)
NC(=O)c1sc2c([N+](=O)[O-])cc(C(F)(F)F)cc2[n+]1[O-] [Compound 1a, 7-Nitro-3-oxy-5-trifluoromethyl-benzothiazole-2-carboxylic acid amide] | 24 ± 3 µM | 16 ± 8 µM | 12.6 ± 6.3 µM | 47 ± 7 µM |  |  | 
O=C(c1sc2c([N+](=O)[O-])cc(C(F)(F)F)cc2[n+]1[O-])N1CCCC1 [Compound 1b, (7-Nitro-3-oxy-5-trifluoromethyl-benzothiazol-2-yl)-pyrrolidin-1-yl-methanone] | 5.2 µM | 12 µM |  | 16 µM | 56 ± 19 µM |  | 
NNC(=O)c1sc2c([N+](=O)[O-])cc(C(F)(F)F)cc2[n+]1[O-] [Compound 1c, 7-Nitro-3-oxy-5-trifluoromethyl-benzothiazole-2-carboxylic acid hydrazide] | 21 ± 3 µM | 16 ± 10 µM | 19 ± 16 µM | 35 ± 3 µM | > 100 µM | 229 to 230 °C | 
N#Cc1cc([N+](=O)[O-])c2sc(C(N)=O)[n+]([O-])c2c1 [Compound 1d, 5-Cyano-7-nitro-3-oxy-benzothiazole-2-carboxylic acid amide] | 4.2 ± 1.5 µM | 6.6 ± 0.8 µM | 2 ± 2 µM | 6.7 ± 1.2 µM | 10 ± 7 µM |  | 
O=C(NO)c1sc2c([N+](=O)[O-])cc(C(F)(F)F)cc2[n+]1[O-] [Compound 1e, 7-Nitro-3-oxy-5-trifluoromethyl-benzothiazole-2-carboxylic acid hydroxyamide] | 13.3 ± 0.6 µM | 21 ± 4 µM | 9 ± 1 µM | 29.4 ± 1.2 µM | 50 to 100 µM | 230 to 231 °C | 
NC(=O)c1sc2c([N+](=O)[O-])cc(F)cc2[n+]1[O-] [Compound 1f, 5-Fluoro-7-nitro-3-oxy-benzothiazole-2-carboxylic acid amide] | 3.9 ± 0.2 µM | 10.2 ± 2.4 µM | 1.6 ± 0.2 µM | 11.5 ± 2 µM |  |  | 50 to 100 µM
O=C(NO)c1sc2c([N+](=O)[O-])cc(F)cc2[n+]1[O-] [Compound 1g, 5-Fluoro-7-nitro-3-oxy-benzothiazole-2-carboxylic acid hydroxyamide] | 7.7 ± 2.9 µM | 14 ± 5 µM | 6.1 ± 1.1 µM | 7.2 ± 3.6 µM | 67 ± 7 µM | 224 to 225 °C | 
N#Cc1sc2c([N+](=O)[O-])cc(C(F)(F)F)cc2[n+]1[O-] [Compound 1h, 7-Nitro-3-oxy-5-trifluoromethyl-benzothiazole-2-carbonitrile] | 10 ± 0.08 µM | 10.2 ± 3.3 µM | 2.1 ± 1.5 µM | 9.5 ± 1.7 µM | 21 µM |  | 
O=[N+]([O-])c1cc(C(F)(F)F)cc2c1sc(O)[n+]2[O-] [Compound 1i, 7-Nitro-3-oxy-5-trifluoromethyl-benzothiazol-2-ol] | 48 ± 5 µM | 56 ± 2 µM | 35 ± 2 µM | 88 ± 10 µM | 39 µM |  | 
NC(=O)c1sc2c([N+](=O)[O-])cc(SC(F)(F)F)cc2[n+]1[O-] [Compound 1j, 7-Nitro-3-oxy-5-trifluoromethylsulfanyl-benzothiazole-2-carboxylic acid amide] | 4 ± 1.8 µM | 6 ± 0.8 µM | 2.5 ± 1 µM | 8.2 ± 0.3 µM |  | 255 to 256 °C | 
